These are literature values, as cited in patent publication US8383585B2, “Biomarkers for cardiodiabetes” (IKFE Institut fur Klinische Forschung und Entwicklung GmbH, priority 2008, dated 2013).

Common to all, as to design: key: ↑: An up arrow indicates an increase in biomarker levels; ↓: a down arrow indicates a decrease; ◯: “O” indicates substantially no change
Conditions in all cases: effect on biomarker level in a subject

In series [1] the test system is adiponectin.
Series [2] has as its system hsCRP.
Series [3] concerns intact proinsulin.

On to `CN(C)C(=N)N=C(N)N` [metformin], for which the adiponectin entry in series [1] is “↑”. In addition, the hsCRP entry in series [2] is “◯”. For the same compound, the intact proinsulin result in series [3] was “↓”.
For insulin, the adiponectin entry in series [1] is “◯”. Also, the hsCRP entry in series [2] is given as “◯”. Further, in series [3], the intact proinsulin result was “↓”.
